# Reference: patent US10952940B2, “Reagents and methods for mineralization of tooth enamel” (UNIVERSITY OF WASHINGTON, priority 2016, dated 2021)
# Legend:
# [1] = Solution mineralization approach on tetracycline-stained teeth, Mean Pixel Intensity; set-up: species or system human; details: repeated rounds of remineralization
# Text: Human teeth, donated by the University of Washington School of Dentistry (Seattle, Wash., USA), were selected for their clean, smooth surfaces. The teeth were sterilized in bleach, cut on a diamond blade to remove the root, and halved. A thin layer of the enamel surface was then cut on one of the halves parallel to the previous cut, such that the dentin layer could be seen without completely removing the enamel on the tooth. This allowed imaging of the enamel surfaces after the mineralization experiment without the problem of surface reflection encountered in previous experiments, in addition to a more parallel surface from which to compare the brightness or whiteness results. The cut enamel side of the tooth sample was then sonicated in DI water and polished on diamond slurry smooth out the surface for imaging. The sample was then cut into quarters, with the lower half selected for a tetracycline experiment because of the even distribution of dentin coloring in the lower quarters of the tooth sample. The samples were then stained in 10 mg/mL tetracycline solution for five days.
# During mineralization, using a 96-well plate, one of the stained halves was stored in […] Tris (24 mM) as a negative control, and the experimental sample was incubated in 150 μL shADP5 (0.8 mM) at 37° C. for 10 minutes. […]
# [2] = Nanoindentation of mineralized layers in cross-section; set-up: species or system human
# Text: Similar to SEM specimen preparation, tooth samples were notched from the back of tooth before remineralization, then fractured along the notch. The specimens were then mounted in a room temperature-cure epoxy, and the cross-section of the fracture was polished to 0.1 μm finish using diamond lapping films (Allied High Tech Products Inc., Rancho Dominguez, Calif., USA). Nanoindentation measurements were made using a Triboindentor nanoindentation system (Hysitron Inc., Minneapolis, Minn., USA) in air. Hardness (H) and elastic modulus (Er) were determined by the software accompanying the nanoindentation unit.^40-42 In order to obtain the values that were not indentation volume dependent, maximum indentation depth for all measurements kept at 120±10 nm. All reported H and Er values were averaged over 20 measurements.
# Nanoindentation, on the other hand, can handle a much smaller applied load, e.g., in the range of 700 to 800 μN; this range of loads to maintain a nominal total indentation depth of approximately 100 nm (<1 μm in indentation width) reasonable depth for both the WSL and mineralized layer regions. The method provides a dynamic measurement with the indentation system tracking continuously load vs. depth during the indentation process providing a Force-to-depth (F-d) profile of the mechanical response of the sample, including biological hard tissues such as enamel, dentin, and bone. The hardness and elastic modulus were extracted from the linear extrapolation of the unloading curve (see FIG. 14b). Hardness obtained by this method contains partial elastic deformation as well as plastic deformation. With small indentation depth and footprint, indentation characterization of the mineral layer only was possible in cross-section for the group 6 samples where mineral layers were more than 5 μm thick. All other treatment groups, reliable nanoindentation characterization of the layers […] because of the thin, and in some cases, discontinuous natural of the layers. It should also be noted that the nanomechanical properties of the artificially created lesion were also determined, with values similar to those of the mineralized layers. Regardless, the complete nanoindentation values are tabulated in Table 10 where each value represents more than 20 measurements per sample.
# [3] = In vitro re-mineralization of tea-stained human tooth using the peptide solution, optical images and line profile analysis
# Protocol: A caries-free human tooth was sterilized in 1% bleach solution for 24 hours then removed and vigorously rinsed with deionized water. The root site was removed and the crown sectioned vertically using a diamond blade. Pictures were taken with a camera attached to an optical microscope.
# The exposed dentine sites were etched with 35% phosphoric acid (Ultraetch™) for 60 seconds (to facilitate the stain intake). The etching gel was removed by rinsing the sample with distilled water for 3 minutes. The staining solution was prepared by boiling 2 g of tea in 100 ml of deionized water for 5 minutes, which was then cooled down to room temperature and filtered. The tooth was soaked in the staining solution and incubated at 37° C. at 150 rpm for 24 hours. The tooth was then removed from the staining solution and sonicated for 30 seconds in deionized water (sonic bath) to remove the excess amount of tea particles attached to tooth extrinsically. The sectioned tooth was cut vertically in half again to form two quarter sections of the tooth. FIGS. 2(a) to 2(g) show various sections of the tooth after the staining. […] Figures (b), (c) and (d) show different views of the left quarter of the tooth that was sectioned from the tooth. […]
# [4] = mineralized layer, n ≥ 20, listed as Group 6 (shADP5)
# [5] = mineralized layer, n ≥ 20, listed as group 6
# [6] = underlying enamel of Group 6 samples
sequence,measurement,setting,value
"SYENSHSQAINVDRT [shADP5, 15-amino acid long amelogenin-derived peptide, shortened human ADP5]",whiteness of the stained tooth,[1],improves with repeated rounds of remineralization
same,Elastic Modulus (nanoindentation),[2]; [4],58.6 ± 4.7 GPa
same,Hardness (nanoindentation),[2]; [4],2.23 ± 0.23 GPa
same,Elastic Modulus (nanoindentation),[2]; [5],58.6±4.7 GPa
same,Hardness (nanoindentation),[2]; [5],2.23±0.23 GPa
same,Elastic Modulus (nanoindentation),[2]; [6],55.0 ± 4.6 GPa
same,Hardness (nanoindentation),[2]; [6],2.12 ± 0.21 GPa
same,Mean Pixel Intensity (MPI) compared with original and stained tooth,"[3]; ImageJ line profile, after staining and remineralization",higher MPI than the original tooth and the tooth after staining
same,tooth color compared with control,"[3]; tea-stained human tooth quarter, peptide 10 min 37° C., then CaCl2/KH2PO4 16 hours",lighter in color than the left quarter (control)
